Earlier results, collected in paper PMC9063988 (JACS Au, 2022).

Tested on: SARS-CoV-2 spike pseudo-lentiviral vector into A549 cells overexpressing ACE2 and TMPRSS2

O=c1c2ccccc2[se]n1-c1ccccc1 [ebselen]
inhibition of entry of SARS-CoV-2 lentivectors: only at high IC50 with high toxicity
